{"source": "ChEMBL document CHEMBL5390242", "about": "“Design, Synthesis, and Antitumor Efficacy of Substituted 2-Amino[1,2,4]triazolopyrimidines and Related Heterocycles as Dual Inhibitors for Microtubule Polymerization and Janus Kinase 2” (J Med Chem, 2023)", "key": {"HeLa": {"tested_on": "HeLa", "assay": "Antiproliferative activity against human HeLa cells assessed as cell growth inhibition incubated for 48 hrs by MTT assay", "type": "functional, cell-based"}, "A549 [1]": {"tested_on": "A549", "assay": "Induction of apoptosis in human A549 cells at 20 uM incubated for 24 hrs by Annexin V-FITC/PI staining based flow cytometry", "type": "functional"}, "[2]": {"biological_target": "Tyrosine-protein kinase JAK2 (Homo sapiens, UniProt O60674)", "sequence (O60674 whole entry)": "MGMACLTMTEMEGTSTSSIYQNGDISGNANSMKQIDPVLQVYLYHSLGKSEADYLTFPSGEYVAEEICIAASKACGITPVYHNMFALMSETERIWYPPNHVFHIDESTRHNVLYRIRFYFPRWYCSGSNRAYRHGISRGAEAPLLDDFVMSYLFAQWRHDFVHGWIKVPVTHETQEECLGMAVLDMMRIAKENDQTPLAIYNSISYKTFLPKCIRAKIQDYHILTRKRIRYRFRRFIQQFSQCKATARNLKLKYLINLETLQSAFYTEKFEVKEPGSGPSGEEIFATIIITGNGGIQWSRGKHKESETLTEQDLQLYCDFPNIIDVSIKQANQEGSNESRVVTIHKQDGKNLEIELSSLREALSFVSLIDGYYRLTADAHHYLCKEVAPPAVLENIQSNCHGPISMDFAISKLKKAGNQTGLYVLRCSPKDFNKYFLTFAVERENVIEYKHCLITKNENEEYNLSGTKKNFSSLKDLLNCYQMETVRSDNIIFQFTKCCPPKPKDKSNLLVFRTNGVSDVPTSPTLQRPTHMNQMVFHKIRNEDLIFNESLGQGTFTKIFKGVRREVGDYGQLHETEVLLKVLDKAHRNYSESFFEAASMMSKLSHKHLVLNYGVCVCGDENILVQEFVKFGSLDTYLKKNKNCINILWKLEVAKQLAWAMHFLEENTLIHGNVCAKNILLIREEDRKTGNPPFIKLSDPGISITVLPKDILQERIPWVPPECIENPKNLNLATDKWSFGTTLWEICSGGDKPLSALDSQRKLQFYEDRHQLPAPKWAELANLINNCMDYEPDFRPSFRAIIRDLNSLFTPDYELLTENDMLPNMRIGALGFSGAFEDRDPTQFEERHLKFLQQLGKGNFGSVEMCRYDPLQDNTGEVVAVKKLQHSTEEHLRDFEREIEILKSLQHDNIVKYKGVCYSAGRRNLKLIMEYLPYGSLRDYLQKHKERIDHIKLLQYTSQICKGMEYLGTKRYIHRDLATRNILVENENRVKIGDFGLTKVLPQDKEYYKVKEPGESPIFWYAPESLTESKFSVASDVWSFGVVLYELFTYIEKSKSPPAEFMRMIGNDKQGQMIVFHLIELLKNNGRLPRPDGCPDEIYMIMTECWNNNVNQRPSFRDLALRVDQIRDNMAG", "assay": "Inhibition of JAK2 (unknown origin) using Poly-(Glu,Tyr 4:1) peptide as substrate in presence of ATP by ADP-Glo reagent based assay"}, "[3]": {"biological_target": "Tyrosine-protein kinase JAK3 (Homo sapiens, UniProt P52333)", "sequence (P52333 whole entry)": "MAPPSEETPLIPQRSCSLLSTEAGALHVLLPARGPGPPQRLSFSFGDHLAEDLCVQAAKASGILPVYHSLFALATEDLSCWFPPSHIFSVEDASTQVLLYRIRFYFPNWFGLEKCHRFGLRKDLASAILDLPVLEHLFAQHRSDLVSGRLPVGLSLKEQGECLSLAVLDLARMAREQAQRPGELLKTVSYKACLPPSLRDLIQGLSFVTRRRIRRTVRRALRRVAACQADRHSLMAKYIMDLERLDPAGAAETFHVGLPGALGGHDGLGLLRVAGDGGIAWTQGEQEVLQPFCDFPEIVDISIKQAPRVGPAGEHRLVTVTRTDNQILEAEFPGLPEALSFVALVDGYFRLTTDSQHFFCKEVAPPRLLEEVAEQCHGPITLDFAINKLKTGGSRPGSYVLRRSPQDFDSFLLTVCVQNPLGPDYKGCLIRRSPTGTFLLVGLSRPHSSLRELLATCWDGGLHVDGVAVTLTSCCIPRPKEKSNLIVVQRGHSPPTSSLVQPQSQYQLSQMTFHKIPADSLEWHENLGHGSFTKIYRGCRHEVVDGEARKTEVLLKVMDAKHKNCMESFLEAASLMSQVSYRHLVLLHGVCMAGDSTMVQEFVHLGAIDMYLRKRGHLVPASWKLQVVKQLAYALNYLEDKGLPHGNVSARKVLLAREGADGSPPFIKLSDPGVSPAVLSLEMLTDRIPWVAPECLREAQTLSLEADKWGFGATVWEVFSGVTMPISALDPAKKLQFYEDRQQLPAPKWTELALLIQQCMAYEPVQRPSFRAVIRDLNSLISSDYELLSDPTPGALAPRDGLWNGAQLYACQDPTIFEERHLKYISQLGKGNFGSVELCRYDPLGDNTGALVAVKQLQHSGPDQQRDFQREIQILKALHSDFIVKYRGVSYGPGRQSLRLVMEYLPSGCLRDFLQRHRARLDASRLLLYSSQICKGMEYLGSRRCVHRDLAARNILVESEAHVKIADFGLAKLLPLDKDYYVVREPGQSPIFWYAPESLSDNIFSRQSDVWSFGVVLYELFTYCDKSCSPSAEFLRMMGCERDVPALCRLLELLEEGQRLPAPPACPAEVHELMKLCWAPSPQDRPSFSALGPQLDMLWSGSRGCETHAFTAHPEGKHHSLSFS", "description": "Inhibition of JAK3 (unknown origin) using Poly-(Glu,Tyr 4:1) peptide as substrate in presence of ATP by ADP-Glo reagent based assay"}, "[4]": {"assay": "Cytotoxicity against human HaCaT cells assessed as cell growth inhibition incubated for 48 hrs by MTT assay", "type": "toxicity, cell-based"}, "[5]": {"assay": "Cytotoxicity against human L02 cells assessed as cell growth inhibition incubated for 48 hrs by MTT assay", "type": "toxicity, cell-based"}, "HCT-8": {"tested_on": "HCT-8", "assay": "Antiproliferative activity against human HCT-8 cells assessed as cell growth inhibition incubated for 48 hrs by MTT assay", "type": "functional, cell-based", "details": "HCT-8, 48 h"}, "[6]": {"assay": "Antiproliferative activity against human A549/DDP cells assessed as cell growth inhibition incubated for 48 hrs by MTT assay", "type": "functional, cell-based"}, "[7]": {"assay": "Resistance index, ratio of IC50 for antiproliferative activity against human A2780T cells to IC50 for antiproliferative activity against human A2780 cells", "type": "functional"}, "[8]": {"assay": "Resistance index, ratio of IC50 for antiproliferative activity against human HCT-8/VCR cells to IC50 for antiproliferative activity against human HCT-8 cells", "type": "functional"}, "PC-3": {"tested_on": "PC-3", "assay": "Antiproliferative activity against human PC-3 cells assessed as cell growth inhibition incubated for 48 hrs by MTT assay", "type": "functional, cell-based", "details": "PC-3, 48 h"}, "[9]": {"assay": "Antiproliferative activity against Chinese hamster CHO cells assessed as cell growth inhibition incubated for 48 hrs by MTT assay", "type": "toxicity, cell-based, Cricetulus griseus"}, "[10]": {"assay": "AUC (0 to t) in CD-1 mouse at 1 mg/kg,iv measured upto 24 hrs by HPLC-MS/MS analysis", "type": "ADME, organism-based", "parameters": "dose 1 mg/kg, time < 24 hrs, route iv", "details": "in vivo"}, "[11]": {"assay": "Half life in CD-1 mouse at 1 mg/kg,iv measured upto 24 hrs by HPLC-MS/MS analysis", "type": "ADME, organism-based", "details": "in vivo"}, "[12]": {"assay": "AUC (0 to t) in CD-1 mouse at 10 mg/kg,ip measured upto 24 hrs by HPLC-MS/MS analysis", "type": "ADME, organism-based", "parameters": "dose 10 mg/kg, time < 24 hrs, route ip", "details": "in vivo"}, "[13]": {"assay": "AUC (0 to infinity) in CD-1 mouse at 10 mg/kg,ip measured upto 24 hrs by HPLC-MS/MS analysis", "type": "ADME, organism-based", "parameters": "time < 24 hrs, dose 10 mg/kg, route ip", "details": "in vivo"}, "[14]": {"assay": "Tmax in CD-1 mouse at 10 mg/kg,ip measured upto 24 hrs by HPLC-MS/MS analysis", "type": "ADME, organism-based", "details": "in vivo"}, "[15]": {"assay": "AUC (0 to t) in CD-1 mouse assessed as AUC (0 to t) of metabolite at 10 mg/kg,ip measured upto 24 hrs by HPLC-MS/MS analysis", "type": "ADME, organism-based", "parameters": "dose 10 mg/kg, time < 24 hrs, route ip", "details": "in vivo"}, "[16]": {"assay": "MRT (0 to t) in CD-1 mouse assessed as MRT (0 to t) of metabolite at 10 mg/kg,ip measured upto 24 hrs by HPLC-MS/MS analysis", "type": "ADME, organism-based", "details": "in vivo"}, "[17]": {"assay": "MRT (0 to infinity) in CD-1 mouse assessed as MRT (0 to infinity) of metabolite at 10 mg/kg,ip measured upto 24 hrs by HPLC-MS/MS analysis", "type": "ADME, organism-based", "details": "in vivo"}, "Tubulin (Sus scrofa)": {"biological_target": "Tubulin (Sus scrofa) (UniProt P02554+P02550)", "sequence (P02550 whole entry, looked up)": "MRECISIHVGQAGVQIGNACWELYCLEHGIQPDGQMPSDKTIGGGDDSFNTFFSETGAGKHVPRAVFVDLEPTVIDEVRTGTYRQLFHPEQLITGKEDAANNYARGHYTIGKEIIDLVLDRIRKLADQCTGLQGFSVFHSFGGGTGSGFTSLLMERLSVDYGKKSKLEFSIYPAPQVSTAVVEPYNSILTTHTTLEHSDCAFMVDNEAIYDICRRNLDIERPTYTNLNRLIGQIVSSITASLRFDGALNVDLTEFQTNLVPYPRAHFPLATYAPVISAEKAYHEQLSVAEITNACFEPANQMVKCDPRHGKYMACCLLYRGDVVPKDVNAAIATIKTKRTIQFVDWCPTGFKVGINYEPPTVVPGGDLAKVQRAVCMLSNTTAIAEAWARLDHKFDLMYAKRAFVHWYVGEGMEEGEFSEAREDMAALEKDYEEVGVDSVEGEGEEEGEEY", "sequence (P02554 whole entry, looked up)": "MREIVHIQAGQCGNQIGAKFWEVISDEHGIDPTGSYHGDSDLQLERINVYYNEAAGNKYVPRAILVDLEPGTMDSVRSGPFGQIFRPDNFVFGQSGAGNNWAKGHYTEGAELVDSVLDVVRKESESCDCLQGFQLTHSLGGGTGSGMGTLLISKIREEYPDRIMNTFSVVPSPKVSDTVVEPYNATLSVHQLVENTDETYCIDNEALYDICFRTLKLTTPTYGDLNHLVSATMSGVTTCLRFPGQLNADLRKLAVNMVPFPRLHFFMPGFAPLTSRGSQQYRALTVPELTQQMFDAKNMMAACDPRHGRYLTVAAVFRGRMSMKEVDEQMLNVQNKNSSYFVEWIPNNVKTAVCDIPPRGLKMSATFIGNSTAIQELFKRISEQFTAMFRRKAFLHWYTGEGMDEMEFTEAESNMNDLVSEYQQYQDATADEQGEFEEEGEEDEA", "assay": "Inhibition of porcine brain tubulin polymerization at 0.625 to 2.5 uM measured for 30 mins in presence of GTP by microplate reader assay", "type": "tissue-based", "details": "dose 0.625-2.5 µM"}, "Tubulin (Homo sapiens)": {"biological_target": "Tubulin (Homo sapiens) (UniProt P68371+Q9H4B7+P0DPH7+P68366+Q13509+Q71U36+P04350+Q3ZCM7+P07437+P68363+Q9BQE3+Q6PEY2+Q13885+Q9BVA1+Q9BUF5)", "assay": "Disruption of microtubule assembly in human A549 cells at 1 uM incubated for 6 hrs by Hoechst33342 staining based immunofluorescence analysis", "type": "cell-based"}, "[18]": {"biological_target": "T1, JAK2-STAT3 (Homo sapiens) (UniProt O60674+P40763)", "assay": "Inhibition of JAK2/STAT3 signalling pathway in human A549 cells assessed as downregulation of STAT3 phosphorylation incubated for 24 hrs by Western blotting analysis", "type": "cell-based"}, "[19]": {"biological_target": "T1, JAK2-STAT3 (Homo sapiens)", "assay": "Inhibition of JAK2/STAT3 signalling pathway in human A549 cells assessed as effect on STAT3 protein level at 5 to 20 uM incubated for 24 hrs by Western blotting analysis", "type": "cell-based", "details": "dose 5-20 µM"}, "A549 [20]": {"tested_on": "A549", "assay": "Induction of cell cycle arrest in human A549 cells assessed as accumulation of cells at G2/M phase at 5 nM incubated for 24 hrs by PI/RNase staining based flow cytometry analysis", "type": "functional"}, "A549 [21]": {"tested_on": "A549", "assay": "Induction of cell cycle arrest in human A549 cells assessed as accumulation of cells at G2/M phase at 20 nM incubated for 24 hrs by PI/RNase staining based flow cytometry analysis", "type": "functional"}, "A549 [22]": {"tested_on": "A549", "assay": "Induction of apoptosis in human A549 cells assessed as late apoptotic cells at 20 nM incubated for 24 hrs by Annexin V-FITC/PI staining based flow cytometry (reference value: 1.72 %)", "type": "functional"}, "A549 [23]": {"tested_on": "A549", "assay": "Induction of apoptosis in human A549 cells assessed as necrotic cells at 10 nM incubated for 24 hrs by Annexin V-FITC/PI staining based flow cytometry (reference value: 0.67 %)", "type": "functional"}, "A549 [24]": {"tested_on": "A549", "assay": "Induction of apoptosis in human A549 cells assessed as necrotic cells at 20 nM incubated for 24 hrs by Annexin V-FITC/PI staining based flow cytometry (reference value: 0.67 %)", "type": "functional"}, "A549 [25]": {"tested_on": "A549", "assay": "Induction of mitochondrial membrane potential loss in human A549 cells by measuring red fluorescence at 10 nM incubated for 16 hrs by JC-1 staining based flow cytometry analysis (reference value: 99.3 %)", "type": "functional"}, "A549 [26]": {"tested_on": "A549", "assay": "Induction of mitochondrial membrane potential loss in human A549 cells by measuring green fluorescence at 10 nM incubated for 16 hrs by JC-1 staining based flow cytometry analysis (reference value: 0.7 %)", "type": "functional"}, "A549 [27]": {"tested_on": "A549", "assay": "Antitumor activity against human A549 cells xenografted in Balb/c mouse assessed as increase in tumor necrotic cells at 50 mg/kg,ip administration measured after 31 days by Hematoxylin-eosin staining based microscopy", "type": "functional, organism-based", "details": "time 31.0 day"}, "[28]": {"assay": "Toxicity in Balb/c mouse xenografted with human A549 cells assessed as effect on lung morphology at 50 mg/kg,ip administration measured after 31 days by Hematoxylin-eosin staining based microscopy", "type": "organism-based", "details": "in vivo, 744 h, time 31 day"}, "[29]": {"assay": "Toxicity in Balb/c mouse xenografted with human A549 cells assessed as effect on liver morphology at 50 mg/kg,ip administration measured after 31 days by Hematoxylin-eosin staining based microscopy", "type": "organism-based", "details": "in vivo, 744 h, time 31 day"}, "[30]": {"assay": "Toxicity in Balb/c mouse xenografted with human A549 cells assessed as effect on heart morphology at 50 mg/kg,ip administration measured after 31 days by Hematoxylin-eosin staining based microscopy", "type": "organism-based", "details": "in vivo, 744 h, time 31 day"}, "[31]": {"assay": "Toxicity in Balb/c mouse xenografted with human A549 cells assessed as effect on kidney morphology at 50 mg/kg,ip administration measured after 31 days by Hematoxylin-eosin staining based microscopy", "type": "organism-based", "details": "in vivo, 744 h, time 31 day"}, "NCI/ADR-RES": {"tested_on": "NCI/ADR-RES", "assay": "cells", "details": "Homo sapiens, 48 h", "description": "Antiproliferative activity against human MCF7ADR cells assessed as cell growth inhibition incubated for 48 hrs by MTT assay"}}, "note": "The source made the active and inactive calls. The calls are words filed in the database; no cut-off is given here."}
{"compound": "COc1cc(-c2nccc3nc(Nc4cccc5[nH]ccc45)nn23)cc(OC)c1OC", "values": [{"measurement": "IC50", "setting": "HeLa", "result": 15, "unit": "nM"}, {"measurement": "Activity", "setting": "A549 [1]", "result": 80.7, "unit": "%"}, {"measurement": "IC50", "setting": "[2]", "result": 74, "unit": "nM"}, {"measurement": "IC50", "setting": "[3]", "result": 12200, "unit": "nM"}, {"measurement": "IC50 at 48 h", "setting": "[4]", "result": 450, "unit": "nM"}, {"measurement": "IC50 at 48 h", "setting": "[5]", "result": 339, "unit": "nM"}, {"measurement": "IC50", "setting": "HCT-8", "result": 34, "unit": "nM"}, {"measurement": "IC50", "setting": "[6]", "result": 36, "unit": "nM"}, {"measurement": "Ratio IC50", "setting": "[7]", "result": 0.3}, {"measurement": "Ratio IC50", "setting": "[8]", "result": 1.4}, {"measurement": "IC50", "setting": "PC-3", "result": 224, "unit": "nM"}, {"measurement": "IC50 at 48 h", "setting": "[9]", "result": 24, "unit": "nM"}, {"measurement": "AUC(0-t) at 24 h", "setting": "[10]", "result": 364, "unit": "ng·h/mL"}, {"measurement": "half-life", "setting": "[11]", "result": 6, "unit": "h"}, {"measurement": "AUC(0-t) at 24 h", "setting": "[12]", "result": 559, "unit": "ng·h/mL"}, {"measurement": "AUC(0-inf)", "setting": "[13]", "result": 580, "unit": "ng·h/mL"}, {"measurement": "Tmax", "setting": "[14]", "result": 0.5, "unit": "h"}, {"measurement": "AUCt", "setting": "[15]", "result": 2534.7, "unit": "ng·h/mL"}, {"measurement": "MRT(t)", "setting": "[16]", "result": 3.5, "unit": "h"}, {"measurement": "MRT", "setting": "[17]", "result": 4, "unit": "h"}, {"measurement": "inhibition", "setting": "Tubulin (Sus scrofa)", "result": "Active"}, {"measurement": "Activity", "setting": "Tubulin (Homo sapiens)", "result": "Active"}, {"measurement": "inhibition", "setting": "[18]", "result": "Dose-Dependent Effect"}, {"measurement": "inhibition", "setting": "[19]", "result": "inactive"}, {"measurement": "Activity", "setting": "A549 [20]", "result": 15.6, "unit": "%"}, {"measurement": "Activity", "setting": "A549 [21]", "result": 91.5, "unit": "%"}, {"measurement": "Activity", "setting": "A549 [22]", "result": 50.8, "unit": "%"}, {"measurement": "Activity", "setting": "A549 [23]", "result": 2.6, "unit": "%"}, {"measurement": "Activity", "setting": "A549 [24]", "result": 5.26, "unit": "%"}, {"measurement": "Activity", "setting": "A549 [25]", "result": 73.6, "unit": "%"}, {"measurement": "Activity", "setting": "A549 [26]", "result": 15.4, "unit": "%"}, {"measurement": "Activity", "setting": "A549 [27]", "result": "Active"}, {"measurement": "Activity", "setting": "[28]", "result": "Non-Toxic"}, {"measurement": "Activity", "setting": "[29]", "result": "Non-Toxic"}, {"measurement": "Activity", "setting": "[30]", "result": "Non-Toxic"}, {"measurement": "Activity", "setting": "[31]", "result": "Non-Toxic"}, {"measurement": "IC50", "setting": "NCI/ADR-RES", "result": 64, "unit": "nM"}]}
